Source: ChEMBL document CHEMBL1126775, “A pharmacological, crystallographic, and quantum chemical study of new inotropic agents” (J Med Chem, 1993)
“And” between values parts separate entries of the source, which are not always exact repeats. Equal values may be shown once.

Columns and labels:
[1] = organism: Cavia porcellus; experiment: Effect on contractile force of spontaneously beating atria from reserpine treated guinea pigs at the concentration of 2 x 10 e-3 M (negative ionotropic effect); type: functional
[2] = organism: Cavia porcellus; experiment: Effect on frequency rate of spontaneously beating atria from reserpine treated guinea pigs at the concentration of 2 x 10 e-3 M (negative chronotropic ionotropic effect); type: functional
[3] = organism: Cavia porcellus; experiment: Effect on frequency rate of spontaneously beating atria from reserpine treated guinea pigs at the concentration of 5 x 10 e-4 M (negative chronotropic ionotropic effect); type: functional
[4] = organism: Cavia porcellus; experiment: Effect on frequency rate of spontaneously beating atria from reserpine treated guinea pigs at the concentration of 10 e-3 M (negative chronotropic ionotropic effect); type: functional
[5] = organism: Cavia porcellus; experiment: Effect on contractile force of spontaneously beating atria from reserpine treated guinea pigs at the concentration of 5x 10 e-4 M; type: functional
[6] = organism: Cavia porcellus; experiment: Effect on frequency rate of spontaneously beating atria from reserpine treated guinea pigs at the concentration of 10 e-4 M; type: functional
[7] = organism: Cavia porcellus; experiment: Effect on contractile force of spontaneously beating atria from reserpine treated guinea pigs at the concentration of 5x 10 e-5 M; type: functional
[8] = organism: Cavia porcellus; experiment: Effect on contractile force of spontaneously beating atria from reserpine treated guinea pigs at the concentration of 10 e-5 M; type: functional
[9] = organism: Cavia porcellus; experiment: Effect on contractile force of spontaneously beating atria from reserpine treated guinea pigs at the concentration of 10 e-4 M; type: functional
[10] = organism: Cavia porcellus; experiment: Effect on contractile force of spontaneously beating atria from reserpine treated guinea pigs at the concentration of 10 e-3 M (negative ionotropic effect); type: functional
[11] = organism: Cavia porcellus; experiment: Effect on frequency rate of spontaneously beating atria from reserpine treated guinea pigs at the concentration of 10 e-5 M; type: functional
[12] = organism: Cavia porcellus; experiment: Effect on contractile force of spontaneously beating atria from reserpine treated guinea pigs at the concentration of 5x 10 e-4 M (negative ionotropic effect); type: functional
[13] = organism: Cavia porcellus; experiment: Effect on frequency rate of spontaneously beating atria from reserpine treated guinea pigs at the concentration of 10 e-3 M; type: functional
[14] = organism: Cavia porcellus; experiment: Effect on contractile force of spontaneously beating atria from reserpine treated guinea pigs at the concentration of 10 e-4 M (negative ionotropic effect); type: functional
[15] = organism: Cavia porcellus; experiment: Effect on frequency rate of spontaneously beating atria from reserpine treated guinea pigs at the concentration of 2 x 10 e-3 M; type: functional
[16] = organism: Cavia porcellus; experiment: Effect on contractile force of spontaneously beating atria from reserpine treated guinea pigs at the concentration of 10 e-3 M; type: functional
[17] = organism: Cavia porcellus; experiment: Effect on frequency rate of spontaneously beating atria from reserpine treated guinea pigs at the concentration of 5 x 10 e-4 M; type: functional
[18] = organism: Cavia porcellus; experiment: Effect on frequency rate of spontaneously beating atria from reserpine treated guinea pigs at the concentration of 5 x 10 e-5 M (negative chronotropic ionotropic effect)
[19] = organism: Cavia porcellus; experiment: Effect on frequency rate of spontaneously beating atria from reserpine treated guinea pigs at the concentration of 10 e-4 M (negative chronotropic ionotropic effect); type: functional
[20] = organism: Cavia porcellus; experiment: Effect on contractile force of spontaneously beating atria from reserpine treated guinea pigs at the concentration of 2 x 10 e-3 M; type: functional
[21] = organism: Cavia porcellus; experiment: Effect on contractile force of spontaneously beating atria from reserpine treated guinea pigs at the concentration of 5x 10 e-5 M (negative ionotropic effect); type: functional

| SMILES | Increase [1] | Increase [2] | Increase [3] | Increase [4] | Increase [5] | Increase [6] | Increase [7] | Increase [8] | Increase [9] | Increase [10] | Increase [11] | Increase [12] | Increase [13] | Increase [14] | Increase [15] | Increase [16] | Increase [17] | Increase [18] | Increase [19] | Increase [20] | also measured |
| --- | --- | --- | --- | --- | --- | --- | --- | --- | --- | --- | --- | --- | --- | --- | --- | --- | --- | --- | --- | --- | --- |
| CC1(C)CC(=O)c2cc(C(=O)O)c(O)nc2C1 | -4.46% | -4.76% | -0.69% | -2.94% | -0.69% | 0.88% | 2.7% | 0.51% | 1.66% | -3.94% | 0.41% and 1.8% |  |  |  |  |  |  |  |  |  |  |
| CC(C)C(=O)c1cc(C(=O)O)c(O)nc1C(C)C | -99.99% |  |  |  |  | 6.01% | 3.21% | 3.46% |  |  | 0.58% and 0.75% | -49.63% | 16.19% | -8.88% | 11.35% | -82.26% | 23.17% |  |  |  |  |
| CC(=O)c1cc(C(=O)O)c(O)nc1C |  | -1.39% | -2.31% | -1.43% | 9.55% |  | 5.72% | 2.63% | 5.46% |  |  |  |  |  |  | 11.48% |  | -4.2% and -4.31% | -5.67% | 10.83% |  |
| CC(=O)c1ccc(O)nc1C |  |  |  |  | 9.72% | 4.7% | 5.84% | 5.35% | 10.35% |  | 1.79% and 4.14% |  | 10.85% |  | 14.19% | 10.27% | 10.85% |  |  | 10.35% |  |
| N#Cc1cc(C(=O)c2ccccc2)c(-c2ccccc2)nc1O | -39.43% | -9.96% | -6.26% | -8.29% |  |  |  | 1.22% |  | -35.54% | 0.5% | -32.19% |  | -22.26% |  |  |  | -3.01% | -3.36% |  | Increase [21]: -6.67% |
| CC1(C)CC(=O)c2ccc(O)nc2C1 |  |  |  |  |  | 1.05% |  | 0% |  |  | 0% and 1.27% | -5.5% | 1.06% | -3.46% | 2.65% | 2.45% | 1.09% |  |  | 4.71% | Increase [21]: -3.45% |
| O=C1CC(c2ccccc2)Cc2nc(O)ccc21 (stereo not drawn) |  |  |  |  | 1.46% | 5.61% | 4.52% | 2.28% | 1.2% |  | 2.19% |  | 12.61% |  | 14.52% | 1.73% | 8.85% | -3.42% |  | 3.44% |  |
| N#Cc1cc2c(nc1O)CCCC2=O |  | -0.79% | -3.85% | -0.57% | 25.67% |  | 7.87% | 2.59% | 16.12% |  | 3.02% |  |  |  |  | 23.3% |  | -3.08% | -6.06% | 13.01% |  |
| O=C(O)c1cc(C(=O)c2ccccc2)c(-c2ccccc2)nc1O | -100% | -35.93% | -14.43% | -25.3% |  |  |  | 2.45% |  | -90.39% |  | -61.56% |  | -10.02% |  |  |  | -2.23% and -3.38% | -5.31% |  | Increase [21]: -1.52% |
| O=C1CCCc2nc(O)ccc21 |  |  |  |  | 23.87% | 6.26% | 7.65% | 0.48% | 14.7% |  | 0% |  | 15.52% |  | 18.17% | 25.64% | 12.44% |  |  | 26.56% |  |
| CC1CC(=O)c2cc(C(=O)O)c(O)nc2C1 (stereo not drawn) |  |  |  |  | 8.53% | 3.58% | 3.78% | 2.55% | 4.57% |  | 1.5% and 2.78% |  | 7.38% |  | 10.36% | 8.37% | 6.53% |  |  | 11.38% |  |
| CC(C)C(=O)c1cc(C#N)c(O)nc1C(C)C | -86.43% |  |  |  |  | 9.64% | 11.62% | 8.22% | 1.42% | -67.64% | 2.33% and 5.14% | -34.43% | 22.83% |  | 16.27% |  | 18.85% |  |  |  |  |
| O=C(O)c1cc2c(nc1O)CC(c1ccccc1)CC2=O (stereo not drawn) |  | -27.07% | -4.58% | -13.88% |  |  | 2.21% | 1.53% |  | -23.77% | 0.58% and 1.22% | -7.59% |  | -1.21% |  |  |  |  | -1.21% | -27.77% |  |
| CC(C)C(=O)c1ccc(O)nc1C(C)C | -44.47% |  |  |  |  |  | 11.69% | 5.34% | 16.38% | -26.37% |  | -9.42% | 26.33% |  | 32.13% |  | 20.8% | -3.28% and -5.14% | -0.99% |  |  |
| CC(C)(C)C(=O)c1cc(C#N)c(O)nc1C(C)(C)C | -89.11% | -15.71% | -6.73% | -14.41% |  |  | 11.34% | 7.34% |  | -81.39% | 2.98% and 0.28% | -66.56% |  | -16.07% |  |  |  |  | -0.44% |  |  |
